From patent US6989375B2, “Enhanced expression of transgenes” (priority 1996, dated 2006)

Test system: H1299 cells
Assay: β-gal expression by X-gal staining after Ad/CMV/β-gal infection of agent-treated cells
Type: cell-based, human
Conditions: for Enhancement of β-gal gene expression after treatment with antineoplastic agent: wide range of drug concentrations, 24 h, infected with Ad/CMV/β-gal 48 hours after drug removal
Method: Gene Delivery Protocol: In vitro gene delivery was performed by incubating cells in six-well plates (Falcon Plastics, Lincoln Park, N.J.) for two hours with Adv/CMV/β-gal in appropriate medium supplemented with 2% FCS. The multiplicity of infection (MOI: number of viral particles per target cell) was based on cell counts of untreated wells. Fresh, complete medium with the appropriate concentration of FCS was then added to the wells at the end of the infection period and cells were then incubated for 20 hours at 37° C., 5% CO2. After washing the cells with ice cold PBS, the cells were fixed with ice-cold 1.25% glutaraldehyde and stained with X-gal (5-bromo-4-chloro-3-indolyl-β-d-galactoside; Gibco BRL) as previously described (MacGregor et al., 1987). The transduction efficiency by Adv/CMV/β-gal was determined by the percentage of positive stained cells (blue) for β-galactosidase activity (1000 cells counted per well).
Time Course and Dose Response: To determine the time course of enhancement, H1299 and H460 cells were seeded in 6-well plates (2×10^5 cells/2 mls/well). After an overnight incubation period (37° C., 5% CO2), the initial medium was replaced with freshly prepared media (2 ml) containing 0.062 μg/ml CDDP (Sigma Chemicals, St. Louis, Mo.) (CDDP was prepared fresh by dissolving in distilled water) and the cells were then incubated for 24 hours at 37° C., with 5% CO2. CDDP-treated cells were then washed twice with PBS and subsequently infected with Ad/CMV/β-gal (MOI=1 for H1299 and MOI=5 for H460) on days 0, 1, 2, 3, 4, 5 or 6 following CDDP removal, to determine the time point at which maximal enhancement of expression was occurring. To establish the dose of CDDP needed to produce maximum enhancement, the cells were treated with different concentrations of CDDP (serial, 1:4 dilutions, ranging from 4 μg/ml to 0.0002 μg/ml, 5 ml per 60 mm dish) for 24 hours and subsequently incubated with Ad/CMV/β-gal 48 hours after removal of CDDP. To study if exposure of malignant cells to different classes of antineoplastic agents would lead to a similar elevation of gene expression, H1299 cells were treated with vincristine (Eli Lilly and Co, Indianapolis, Ind.), methotrexate (Lederle Pharmaceuticals, Pearl River, N.Y.), 5-fluorouracil (SoloPak Laboratories, Elk Grove Village, Ill.), epotoside (Bristol Laboratories, Princeton, N.J.) and transplatin (the isomer of CDDP that has no anticancer activity, Sigma Chemical, St. Louis, Mo.) in the similar fashion as CDDP treatment and then infected with Ad/CMV/β-gal 48 hours after removal of drug-containing media. H1299 cells were treated with 2, 4, 8, or 16 Grey (Gy) of ionizing irradiation and then similarly infected 72 hours after irradiation. Untreated cells that were similarly infected, served as controls.

| SMILES | Enhancement of β-gal gene expression after treatment with antineoplastic agent | Enhancement of β-gal expression (FIG. 3) (drugs at 0.062 μg/ml or irradiated with 8 Greys, stained 24 hrs after infection) |
| --- | --- | --- |
| O=c1[nH]cc(F)c(=O)[nH]1 [5-fluorouracil] | did not result in enhanced gene expression |  |
| COc1cc([C@@H]2c3cc4c(cc3[C@@H](O[C@@H]3O[C@@H]5CO[C@@H](C)O[C@H]5[C@H](O)[C@H]3O)[C@H]3COC(=O)[C@H]23)OCO4)cc(OC)c1O [VP-16, etoposide] | enhanced gene expression | Enhancement of β-gal expression was observed |
| CN(Cc1cnc2nc(N)nc(N)c2n1)c1ccc(C(=O)N[C@@H](CCC(=O)O)C(=O)O)cc1 [methotrexate] | did not result in enhanced gene expression |  |
| N.N.[Cl][Pt+2][Cl] [transplatinum] | did not result in enhanced gene expression |  |
| CC[C@]1(O)C[C@H]2CN(CCc3c([nH]c4ccccc34)[C@@](C(=O)OC)(c3cc4c(cc3OC)N(C=O)[C@H]3[C@@](O)(C(=O)OC)[C@H](OC(C)=O)[C@]5(CC)C=CCN6CC[C@]43[C@@H]65)C2)C1 [vincristine] | did not result in enhanced gene expression |  |
